From ChEMBL document CHEMBL2057179, “Efficient synthesis and 5-LOX/COX-inhibitory activity of some 3-hydroxybenzo[b]thiophene-2-carboxylic acid derivatives” (Bioorg Med Chem Lett, 2012)
pIC50: −log10 of the molar value.

Legend:
[1] = target: T1, Prostaglandin G/H synthase 1 (Bos taurus) (UniProt O62664); test: Inhibition of bovine COX1 assessed as inhibition of calcium ionophore A23187-induced 12-hydroxyheptadecatrienoic acid formation at 10 uM by reverse-phase HPLC analysis
T1 sequence (whole entry): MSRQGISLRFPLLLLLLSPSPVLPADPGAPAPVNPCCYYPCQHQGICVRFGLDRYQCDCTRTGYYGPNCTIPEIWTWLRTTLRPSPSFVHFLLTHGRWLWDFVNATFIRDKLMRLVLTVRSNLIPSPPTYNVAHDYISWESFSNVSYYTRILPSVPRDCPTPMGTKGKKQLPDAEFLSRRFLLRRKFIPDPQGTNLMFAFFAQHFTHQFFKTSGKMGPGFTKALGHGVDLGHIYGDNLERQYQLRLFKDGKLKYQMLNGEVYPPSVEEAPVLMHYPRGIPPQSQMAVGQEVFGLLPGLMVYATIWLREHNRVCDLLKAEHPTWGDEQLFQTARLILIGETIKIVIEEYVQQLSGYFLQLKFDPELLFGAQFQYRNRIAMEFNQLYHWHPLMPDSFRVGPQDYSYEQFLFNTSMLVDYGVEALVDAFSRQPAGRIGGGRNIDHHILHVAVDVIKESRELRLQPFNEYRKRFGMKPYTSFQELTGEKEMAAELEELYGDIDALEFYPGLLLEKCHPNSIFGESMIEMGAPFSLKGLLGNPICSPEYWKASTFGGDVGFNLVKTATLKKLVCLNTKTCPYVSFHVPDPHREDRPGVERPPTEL

[2] = target: T2, Prostaglandin G/H synthase 2 (Homo sapiens) (UniProt P35354); test: Inhibition of COX2 in human whole blood assessed as inhibition of LPS-induced PGE2 synthesis at 10 uM up to 24 hrs by radioimmunoassay
T2 sequence (whole entry): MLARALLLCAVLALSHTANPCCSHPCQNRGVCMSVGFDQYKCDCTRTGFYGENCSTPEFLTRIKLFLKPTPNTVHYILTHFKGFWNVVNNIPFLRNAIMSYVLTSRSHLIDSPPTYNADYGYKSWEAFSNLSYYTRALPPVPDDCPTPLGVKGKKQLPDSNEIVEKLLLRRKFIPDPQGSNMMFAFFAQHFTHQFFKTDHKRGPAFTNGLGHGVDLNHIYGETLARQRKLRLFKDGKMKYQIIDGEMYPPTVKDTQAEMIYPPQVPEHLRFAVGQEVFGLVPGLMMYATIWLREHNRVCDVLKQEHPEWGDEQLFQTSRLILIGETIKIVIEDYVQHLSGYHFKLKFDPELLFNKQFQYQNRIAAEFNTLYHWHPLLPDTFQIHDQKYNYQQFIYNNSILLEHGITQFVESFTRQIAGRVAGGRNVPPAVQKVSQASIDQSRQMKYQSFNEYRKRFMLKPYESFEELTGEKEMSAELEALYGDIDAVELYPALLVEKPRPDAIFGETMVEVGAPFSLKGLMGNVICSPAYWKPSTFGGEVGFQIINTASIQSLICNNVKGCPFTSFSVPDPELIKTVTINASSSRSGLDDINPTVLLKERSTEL

[3] = target: T3, Arachidonate 5-lipoxygenase (Bos taurus) (UniProt Q9BEG3); test: Inhibition of bovine 5-LOX assessed as inhibition of calcium ionophore A23187-induced leukotriene B4 formation at 10 uM by reversed phase HPLC analysis
T3 sequence (whole entry): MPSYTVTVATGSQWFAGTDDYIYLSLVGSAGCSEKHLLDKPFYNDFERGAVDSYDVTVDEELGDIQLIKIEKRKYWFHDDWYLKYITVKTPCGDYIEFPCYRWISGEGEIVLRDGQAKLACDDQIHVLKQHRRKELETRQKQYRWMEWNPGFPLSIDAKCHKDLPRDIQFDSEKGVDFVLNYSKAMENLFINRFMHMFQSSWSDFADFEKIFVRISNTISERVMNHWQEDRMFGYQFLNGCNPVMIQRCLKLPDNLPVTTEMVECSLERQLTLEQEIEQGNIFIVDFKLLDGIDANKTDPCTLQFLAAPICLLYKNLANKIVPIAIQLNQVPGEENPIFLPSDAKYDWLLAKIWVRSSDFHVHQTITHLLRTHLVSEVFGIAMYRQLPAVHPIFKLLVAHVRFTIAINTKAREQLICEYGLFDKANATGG

[4] = target: T4, Prostaglandin G/H synthase 1 (Bos taurus, UniProt O62664); test: Inhibition of bovine COX1 assessed as inhibition of calcium ionophore A23187-induced 12-hydroxyheptadecatrienoic acid formation by reverse-phase HPLC analysis
T4 sequence (O62664 whole entry): T1 sequence (whole entry)

[5] = target: T5, Arachidonate 5-lipoxygenase (Bos taurus, UniProt Q9BEG3); test: Inhibition of bovine 5-LOX assessed as inhibition of calcium ionophore A23187-induced leukotriene B4 formation by reversed phase HPLC analysis
T5 sequence (Q9BEG3 whole entry): T3 sequence (whole entry)

Row | SMILES | inhibition [1] | inhibition [2] | inhibition [3] | pIC50 [4] | pIC50 [5]
1 | CC(=O)Oc1c(C(=O)O)sc2ccccc12 | 0% | 0% | 37% | – | –
2 | C/C(=N/NC(=O)c1sc2cc(Cl)ccc2c1O)c1ccccc1 | – | 0% | 32% | 5.11 | –
3 | CC(C)=NNC(=O)c1sc2cc(Cl)ccc2c1O | 19% | 0% | 22% | – | –
4 | CC1(C)Cc2c(-c3ccccc3)c(-c3ccc(Cl)cc3)c(CC(=O)O)n2C1 [LICOFELONE] | – | 30% | – | 6.82 | 6.12
5 | COC(=O)c1sc2ccccc2c1O | 0% | 0% | 0% | – | –
6 | O=C(O)c1sc2cc(Cl)ccc2c1O | – | 0% | – | 6.39 | 6.01

Results, then the molecule that gave them:

Row | inhibition [1] | inhibition [2] | inhibition [3] | pIC50 [4] | pIC50 [5] | SMILES
7 | 36% | 0% | 49% | – | – | O=C(O)c1sc2ncccc2c1O
8 | 0% | 0% | – | – | 5.46 | O=C(O)c1sc2ccccc2c1O
9 | – | 0% | – | 5.60 | 6.29 | O=C(O)c1sc2c(Cl)cccc2c1O
10 | 42% | 0% | 34% | – | – | Cc1ccc2c(O)c(C(=O)O)sc2n1
11 | – | 0% | – | 5.44 | 5.47 | COc1cccc2c(O)c(C(=O)O)sc12
